The record followed here is ChEMBL document CHEMBL1138939, “Privileged structure based ligands for melanocortin receptors--4,4-disubstituted piperidine derivatives” (Bioorg Med Chem Lett, 2006).

Sequence of Melanocortin receptor 4 (P32245 whole entry): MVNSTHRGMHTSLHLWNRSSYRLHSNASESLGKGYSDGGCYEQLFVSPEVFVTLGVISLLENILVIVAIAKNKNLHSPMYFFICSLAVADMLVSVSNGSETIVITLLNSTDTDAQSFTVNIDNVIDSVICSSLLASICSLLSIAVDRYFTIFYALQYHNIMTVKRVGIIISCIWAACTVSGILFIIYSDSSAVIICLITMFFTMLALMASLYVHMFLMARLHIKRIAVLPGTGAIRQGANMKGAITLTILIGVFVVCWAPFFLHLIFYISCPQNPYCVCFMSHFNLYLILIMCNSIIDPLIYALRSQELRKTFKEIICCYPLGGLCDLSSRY

The assay addresses Melanocortin receptor 4 (Homo sapiens, UniProt P32245). The experiment in a line: Displacement of [125I]NDP-alpha-MSH from human MC4 receptor transfected in HEK293 cells. Format: cell-based. In general terms: In a radioligand displacement assay an active substance lowers the binding of a labelled ligand.
Consider `CC(C)CC1(N2CCN(C(=O)[C@@H](Cc3ccc(Cl)cc3)NC(=O)CC3NCc4ccccc43)CC2)CCN(C(=O)C(C)C)CC1` (some centres not stated), for which the Ki (commonly the dissociation constant of the complex between target and ligand, obtained from inhibition or displacement) worked out at 101 nM.

`CC(C)C1(N2CCN(C(=O)[C@@H](Cc3ccc(Cl)cc3)NC(=O)CC3NCc4ccccc43)CC2)CCN(C)CC1` (some centres not stated) gave a Ki of 41.8 nM.

`CC(C)CC1(N2CCN(C(=O)[C@@H](Cc3ccc(Cl)cc3)NC(=O)CC3NCc4ccccc43)CC2)CCS(=O)(=O)CC1` (some centres not stated): the Ki stood at 75.8 nM.

As to `CC(C)CC1(N2CCN(C(=O)[C@@H](Cc3ccc(Cl)cc3)NC(=O)CC3NCc4ccccc43)CC2)CCN(S(C)(=O)=O)CC1` (some centres not stated), the inhibitory constant (Ki) was determined as 27.3 nM.

Regarding `CN1CCC(Cc2ccccc2)(N2CCN(C(=O)[C@@H](Cc3ccc(Cl)cc3)NC(=O)CC3NCc4ccccc43)CC2)CC1` (some centres not stated), affinity was put at a Ki of 43.9 nM.

On to `CCN(CC)CC(CC1CCCCC1)N1CCN(C(=O)[C@@H](Cc2ccc(Cl)cc2)NC(=O)CC2NCc3ccccc32)CC1` (some centres not stated), for which the affinity, expressed as Ki, was 5 nM.

Compound `CC(C)CC1(N2CCN(C(=O)[C@@H](Cc3ccc(Cl)cc3)NC(=O)CC3NCc4ccccc43)CC2)CCN(C(C)C)CC1` (some centres not stated) had a Ki of 12.9 nM.

Take `CC(C)CC1(N2CCN(C(=O)[C@@H](Cc3ccc(Cl)cc3)NC(=O)CC3NCc4ccccc43)CC2)CCOCC1` (some centres not stated): the affinity corresponds to a Ki of 31.4 nM.

As to `CC(C)CC1(N2CCN(C(=O)[C@@H](Cc3ccc(Cl)cc3)NC(=O)CC3NCc4ccccc43)CC2)CCN(C)CC1` (some centres not stated), the Ki amounted to 12.7 nM.

The compound `CCC1(N2CCN(C(=O)[C@@H](Cc3ccc(Cl)cc3)NC(=O)CC3NCc4ccccc43)CC2)CCN(C)CC1` (some centres not stated) had a Ki of 370 nM.

`CN1CCC(c2ccccc2)(N2CCN(C(=O)[C@@H](Cc3ccc(Cl)cc3)NC(=O)CC3NCc4ccccc43)CC2)CC1` (some centres not stated) displayed a Ki of 215 nM.

The compound `CCN1CCC(CC(C)C)(N2CCN(C(=O)[C@@H](Cc3ccc(Cl)cc3)NC(=O)CC3NCc4ccccc43)CC2)CC1` (some centres not stated) showed a Ki of 15.6 nM.

For `CC(C)CC1(N2CCN(C(=O)[C@@H](Cc3ccc(Cl)cc3)NC(=O)CC3NCc4ccccc43)CC2)CCCCC1` (some centres not stated), the Ki turned out to be 46.9 nM.

In turn, `CC(C)CC1(N2CCN(C(=O)[C@@H](Cc3ccc(Cl)cc3)NC(=O)CC3NCc4ccccc43)CC2)CCSCC1` (some centres not stated) yielded an inhibitory constant (Ki) of 68.4 nM.

Compound `CC(=O)N1CCC(CC(C)C)(N2CCN(C(=O)[C@@H](Cc3ccc(Cl)cc3)NC(=O)CC3NCc4ccccc43)CC2)CC1` (some centres not stated) showed a Ki of 37.5 nM.

For `CCCCCCC1(N2CCN(C(=O)[C@@H](Cc3ccc(Cl)cc3)NC(=O)CC3NCc4ccccc43)CC2)CCN(C)CC1` (some centres not stated), affinity was put at a Ki of 69.6 nM.

The compound `CN1CCC(CC2CCCCC2)(N2CCN(C(=O)[C@@H](Cc3ccc(Cl)cc3)NC(=O)CC3NCc4ccccc43)CC2)CC1` (some centres not stated) yielded a Ki of 6.8 nM.
